From US8334366B1, “Mutant lycotoxin-1 peptide sequences for insecticidal and cell membrane altering properties” (The United States of America, as represented by the …, priority 2009, dated 2012)

Assays:
[1] = system: INVSc1-XI-Lyt-1 yeast cells; assay: Scanning electron microscopy of yeast strains expressing variants; format: cell-based, Saccharomyces cerevisiae; settings: INVSc1-XI-Lyt-1 yeast strain expressing the variant
Description: Yeast cells from the plate were suspended in saline (0.85% NaCl) and centrifuged to remove the residual medium. Following a modified procedure of Bang and Pazirandeh [Bang and Pazirandeh. Physical properties and heavy metal uptake of encapsulated Escherichia coli expressing a metal binding gene (NCP). J. Microencapsul. 1999; 16(4): 489-499], the cell pellet was suspended and fixed in 2.5% glutaraldehyde prepared in 100 mM cacodylate buffer, pH 7.2, for 1 h on ice. To remove remaining glutaraldehyde, the cells were rinsed with the buffer twice and then with distilled water once, allowing several minutes for each step. The cells were dehydrated in solutions containing 50, 70, 80 and 100% ethanol successively for 15 min for each treatment. Cells were mounted on the aluminum stub and placed in the desiccator to dry overnight or until needed. The samples were subjected to scanning electron microscopy and analysis (Zeiss Supra 40 VP).

[2] = system: fall armyworm (Spodoptera frugiperda) larvae; assay: Lethality of single INVSc1-XI-Lyt-1 yeast strain isolates expressing Lyt-1 toxin variants on xylose plates to fall armyworm larvae; format: in vivo; settings: for relative mortality compared with mutants C3 and A6 (frequency analysis) / mortality compared pairwise (C6 vs B9; A6 vs C3), frequency analysis: SAS Proc Freq, data adjusted for colony size, P<0.05; for relative mortality compared with mutants C3 and A6 (frequency analysis): 20-insect sample; for state of armyworms on plates containing cultures expressing variants: compared with INVSc1-XI control plate; for Day 1 (% killed) / Day 2 (% killed): single isolates grown 3 days on CM xylose URA/TRP plates, 4 plates averaged, 20 larvae/plate, adjusted for colony size
Description: Samples of the transformation reactions from each of the multiplex wells were recovered on 86×128 mm rectangular CM glucose URA/TRP-selective plates for 2 days at 30° C. and diluted 10.000-fold in sterile water; then 200 μl was spotted onto the respective CM xylose URA/TRP-selective plates and allowed to grow for 3 days to generate a yeast growth area (spot) expressing toxins. The size of the spot was recorded and used to normalize the percent killed, since the percent is a function of the amount of yeast encountered. Twenty newly hatched armyworm larvae were added to the growth spot on the plate, the plate was covered with a lid having five small 0.4 mm openings in the center protected with cotton organdy cloth, and the lid was sealed to the plate with Microseal ‘A’ film (MJ Research, Waltham, Mass.) cut so that a gasket 5-mm wide could seal the edges. The plates were scored for the number of dead armyworms daily after adding the larvae until the assay was ended. Results from days 1 and 2 were of the greatest importance for a commercially viable insecticide. The multiplexed wells having the mutants showing greatest lethality (positions 8, 9, and 10) were selected and the multiplexed wells containing the lycotoxin-1 inserts in pENTR D TOPO corresponding to those positions were transformed into TOP 10 cells, single colonies picked from spread plates, and a plasmid preparation performed. The sequences of 90 AASM variant single isolates picked from the three most lethal multiplexed wells were determined. Forty-five of these had inserts with complete sequences in the correct orientation. Nine were C3, while 36 of them were unique variants and these were selected for the second lethality assay. They were moved into pSUMOduo/TRP via LR clonase, retransformed into INVSc1-XI yeast, and recovered on CM glucose URA/TRP-selective plates. Single colonies with sequence-verified inserts were picked into CM glucose URA/TRP-selective liquid medium, grown, and diluted 10,000-fold. A 100 μl sample was spotted onto CM xylose URA/TRP-selective plates and analyzed for lethality, along with samples containing C3, in quadruplicate, with 20 newly hatched armyworm larvae added to each plate. The variants were scored for dead armyworms and the percent killed was calculated.
Single colonies were picked from the multiplexed wells for the mutation positions showing greatest lethality. Growing yeast spots containing the individual variants were tested for lethality to fall armyworm larvae. Percent dead on day 2 for C3, B9, A6, and C6 were 71, 97, 74, and 100%, respectively (Table 2). The two AASM mutants B9 and C6 were more lethal than the NNR mutant C3. The numbers are normalized for diameter of the colony on the xylose plates. […] Frequency analysis was performed using SAS Proc Freq (SAS Institute 1999) with data adjusted for colony size and assuming a conservative 20-insect sample for each treatment.

transformed host cell = assay: Expression of variant peptide in transformed host cell (membrane crossing, intracellular membranes); format: cell-based; settings: expression in a transformed host cell
[3] = system: fall armyworm (Spodoptera frugiperda) larvae; assay: Initial screen: lyophilized yeast cultures expressing lycotoxin-1 / NNR mutants mixed with insect diet, armyworm larvae assay; settings: lyophilized yeast culture in pYES2-DEST52/INVSc1 mixed with rehydrated insect diet, oral, 20 newly hatched larvae

Row | Sequence | cell surface morphology in scanning electron micrographs [1] | relative mortality compared with mutants C3 and A6 (frequency analysis) [2] | state of armyworms on plates containing cultures expressing variants [2] | Day 1 (% killed) [2] [%] | Day 2 (% killed) [2] [%] | Day 2 (% killed) ([2]; listed as XI Lyt-1 B9) [%] | build-up of intracellular membranes (tubules) on expression (transformed host cell) | mortality compared pairwise (C6 vs B9; A6 vs C3), frequency analysis [2] | Day 2 (% killed) ([2]; listed as XI Lyt-1 C6) [%] | Day 2 (% killed) ([2]; listed as XI Lyt-1 A6) [%] | lethality to armyworms in initial screening [3]
1 | IWLTALKFLQKHAAKHLAKHSLSPW (Completely synthesized from synthetic oligonucleotides) [B9, lycotoxin-1 variant with mutations G10Q, Q20H, Q21S, K24P, L25W] | numerous bulges and irregularities on the surface | significantly greater than mortality caused by mutants C3 and A6 | much smaller and mostly or all dead | 0.0 | 97 | 97.2 |  |  |  |  | 
2 | IWLTALKFSGKHAAKHLAKQQLSPW (Completely synthesized from synthetic oligonucleotides) [C6, lycotoxin-1 variant with mutations L9S, K24P, L25W] | numerous bulges and irregularities on the surface | significantly greater than mortality caused by mutants C3 and A6 | much smaller and mostly or all dead | 3.7 | 100 |  | significant build-up of intracellular membranes | not significantly different | 100.0 |  | 
3 | IWLTALKHLGKHAAKHLAKQQLSPW (Completely synthesized from synthetic oligonucleotides) [A6, lycotoxin-1 variant with mutations F8H, K24P, L25W] | numerous bulges and irregularities on the surface |  | much smaller and mostly or all dead | 13.2 | 74 |  |  | not significantly different |  | 74.1 | 
4 | IWLTALKFLGKHAAKHLAKQQLSKL [wild-type lycotoxin-1] |  |  |  |  |  |  |  |  |  |  | not found to be lethal
